{"source": "paper PMC6917776", "about": "“Discovery of a chemical probe for PRDM9” (Nature Communications, 2019)", "tested_on": "H3K4me3 at known PRDM9 binding loci and control TSS loci", "assay": "ChIP-qPCR of H3K4me3 in PRDM9-transfected HEK293T cells", "assay_type": "cell-based, human", "conditions": "Antibody H3K4me3; for 2^-dCq / dCq (IP-Input) / Cq: Figure 7 Replicate 2; for 2^-dCq (H3K4me3 IP relative to H3 IP): ChIP-qPCR Replicate 1; for Cq: ChIP-qPCR single well; for 2^-dCq (H3K4me3 ChIP relative to H3 ChIP): Replicate 1", "description": "ChIP-qPCR assays were then conducted on known PRDM9 binding loci[26]. Ectopic expression of PRDM9^WT increased trimethylation of H3K4 (H3K4me3) at previously described PRDM9-specific intragenic and intergenic regions[26] (Fig. 7; Supplementary Fig. 12). […] The observed increases in H3K4me3 levels at intragenic and intergenic regions are therefore due directly to PRDM9 PR domain-dependent methylation activity, rather than through recruitment of other H3K4 methyltransferases or other indirect mechanisms.\nChIP qPCR analyses of H3K4me3 methylation levels of known PRDM9-bound loci and control loci. […] Concentrations used (µM) are indicated below each plot. (a–d) represent reported loci of PRDM9 methylation; (e, f) are transcriptional start sites (TSSs) which are not known loci of PRDM9 methylation. Data are normalized to total H3 and are presented as the mean ± upper and lower limits from two replicates. Representative plots of two independent experiments are shown in this figure. The coordinates and the genomic features associated with the assayed loci are indicated above each plot. Left Tailed Student's t-tests were performed by comparing DMSO (0 µM) treated cells to compound treated cells that have been transfected with the same plasmids. *p-value < 0.05 and **p-value < 0.01. Note that here we show a representative of two independent experiments (mean ± s.d of technical replicates) for our ChIP-qPCR experiments. Data obtained using this technique are inherently noisy due to stochastic differences in gene activity/histone positioning. Data are thus typically presented as representative rather than averaged. Source data are provided as a Source Data file.\nHEK293T cells were transfected with 37.5 μg empty pcDNA3.1(+) vector (Invitrogen), or the same vector expressing either wild-type PRDM9 (PRDM9^WT) or a catalytically dead PRDM9 mutant (PRDM9^Mut) and 75 μL of Lipofectamine 2000 (Invitrogen) in 6 mL of Opti-MEM (GIBCO) for 48 h. […] ChIP assays were then performed as previously described. Briefly, cells were fixed in 1% formaldehyde and the fixation reaction was quenched in a final concentration of 0.1 M glycine. Cell pellets were first lysed in LB1 (50 mM HEPES-KOH pH 7.5, 140 mM NaCl, 1 mM EDTA, 10% Glycerol, 0.5% Igepal, 0.25% TritonX), washed once in LB2 Buffer (10 mM Tris-HCl pH 8, 200 mM NaCl, 1 mM EDTA, 0.5 mM EGTA) and finally sonicated in LB3 buffer (10 mM Tris-HCl pH 8, 100 mM NaCl, 1 mM EDTA, 0.5 mM EGTA, 0.1% Sodium deoxycholate, 0.5% N-laurosylsarcosine) using a bioruptor (Diagenode). Thereafter, 50 μg of chromatin was subjected to ChIP using the following antibodies purchased from Abcam: α-H3K4me3 (1:200, ab8580, lot:GR3207339-1) and α-H3 (1:250, ab1791, lot:GR300978-4). After extensive washing in RIPA wash buffer (50 mM HEPES-KOH pH 7.6, 100 mM LiCl, 1 mM EDTA, 1% Igepal, 0.7% Sodium Deoxycholate), DNA was eluted from beads. The eluted DNA was treated with RNase A and Proteinase K and purified using the QIAGEN PCR purification kit. qPCR was then carried out targeting the indicated loci (Supplementary Table 3). Upper and lower limits were defined by |2^−(dCq±s) − 2^−(∆Cq)|, where s = √((Standard deviation of Input Cq)^2 + (Standard deviation of Target Cq)^2). […]\nformation. ChIP qPCR analyses of H3K4me3 methylation levels at known PRDM9-bound and control loci. Cells transfected with empty vector (negative control) or vectors overexpressing either wild-type PRDM9 (PRDM9 WT) or catalytically dead PRDM9 (PRDM9 MUT) were […]\nPanels a-d represent reported loci of […]\n(1 picture or pasted object on this page, not shown here)\nPRDM9 methylation; e-f are TSSs which are not known sites of PRDM9 methylation. Data are normalized to total H3 and are presented as the mean ± upper and lower limits from two […]", "key": {"[1]": {"conditions": "Plasmid PRDM9WT, Drug Conc. 2.5"}}, "note": "“And” between values parts separate entries of the source, which are not always exact repeats. Identical values can stand only once.", "data": [{"compound": "COc1cc(OC)cc(-c2noc(N3CCN(C)C4(CCN(c5ccnc(C)c5)CC4)C3)n2)c1", "note": "[MRK-740]", "values": [{"measurement": "2^-dCq", "setting": "[1]", "value": 68.6717}, {"measurement": "dCq (IP-Input)", "setting": "[1]", "value": -6.102}, {"measurement": "2^-dCq", "setting": "Plasmid PRDM9WT, Drug Conc. 5", "value": 143.684}, {"measurement": "dCq (IP-Input)", "setting": "Plasmid PRDM9WT, Drug Conc. 5", "value": -7.167}, {"measurement": "2^-dCq", "setting": "Plasmid PRDM9WT, Drug Conc. 10", "value": 36.5414}, {"measurement": "dCq (IP-Input)", "setting": "Plasmid PRDM9WT, Drug Conc. 10", "value": -5.191}, {"measurement": "2^-dCq (H3K4me3 IP relative to H3 IP)", "setting": "Figure 7 E chr12:6643945-6644023 TSS (GAPDH), Plasmid Empty Vector, Drug Conc. 2.5", "value": 42.6349}, {"measurement": "2^-dCq (H3K4me3 IP relative to H3 IP)", "setting": "Figure 7 E chr12:6643945-6644023 TSS (GAPDH), Plasmid Empty Vector, Drug Conc. 5", "value": 95.4581}, {"measurement": "2^-dCq (H3K4me3 IP relative to H3 IP)", "setting": "Figure 7 E chr12:6643945-6644023 TSS (GAPDH), Plasmid Empty Vector, Drug Conc. 10", "value": 117.266}, {"measurement": "2^-dCq (H3K4me3 IP relative to H3 IP)", "setting": "Figure 7 E chr12:6643945-6644023 TSS (GAPDH), Plasmid PRDM9WT, Drug Conc. 2.5", "value": 25.3027}, {"measurement": "2^-dCq (H3K4me3 IP relative to H3 IP)", "setting": "Figure 7 E chr12:6643945-6644023 TSS (GAPDH), Plasmid PRDM9WT, Drug Conc. 5", "value": 32.9385}, {"measurement": "2^-dCq (H3K4me3 IP relative to H3 IP)", "setting": "Figure 7 E chr12:6643945-6644023 TSS (GAPDH), Plasmid PRDM9WT, Drug Conc. 10", "value": 45.6823}, {"measurement": "2^-dCq (H3K4me3 IP relative to H3 IP)", "setting": "Figure 7 F chr19:8510167-8510261 TSS (HNRNPM), Plasmid Empty Vector, Drug Conc. 2.5", "value": 71.0331}, {"measurement": "2^-dCq (H3K4me3 IP relative to H3 IP)", "setting": "Figure 7 F chr19:8510167-8510261 TSS (HNRNPM), Plasmid Empty Vector, Drug Conc. 5", "value": 77.1794}, {"measurement": "2^-dCq (H3K4me3 IP relative to H3 IP)", "setting": "Figure 7 F chr19:8510167-8510261 TSS (HNRNPM), Plasmid Empty Vector, Drug Conc. 10", "value": 127.571}, {"measurement": "2^-dCq (H3K4me3 IP relative to H3 IP)", "setting": "Figure 7 F chr19:8510167-8510261 TSS (HNRNPM), Plasmid PRDM9WT, Drug Conc. 2.5", "value": 23.4419}, {"measurement": "2^-dCq (H3K4me3 IP relative to H3 IP)", "setting": "Figure 7 F chr19:8510167-8510261 TSS (HNRNPM), Plasmid PRDM9WT, Drug Conc. 5", "value": 34.0456}, {"measurement": "2^-dCq (H3K4me3 IP relative to H3 IP)", "setting": "Figure 7 F chr19:8510167-8510261 TSS (HNRNPM), Plasmid PRDM9WT, Drug Conc. 10", "value": 45.2017}, {"measurement": "Cq", "setting": "[1]", "value": 20.9173}, {"measurement": "Cq", "setting": "Plasmid PRDM9WT, Drug Conc. 5", "value": "20.8427 and 20.8648"}, {"measurement": "Cq", "setting": "Plasmid PRDM9WT, Drug Conc. 10", "value": "21.3604 and 21.0972"}, {"measurement": "2^-dCq (H3K4me3 ChIP relative to H3 ChIP)", "setting": "Figure 7 A, chr2:128811847-128811944 (Intergenic), Plasmid Empty Vector, Drug Conc. 2.5", "value": 0.4418}, {"measurement": "2^-dCq (H3K4me3 ChIP relative to H3 ChIP)", "setting": "Figure 7 A, chr2:128811847-128811944 (Intergenic), Plasmid Empty Vector, Drug Conc. 5", "value": 0.3019}, {"measurement": "2^-dCq (H3K4me3 ChIP relative to H3 ChIP)", "setting": "Figure 7 A, chr2:128811847-128811944 (Intergenic), Plasmid Empty Vector, Drug Conc. 10", "value": 0.3892}, {"measurement": "2^-dCq (H3K4me3 ChIP relative to H3 ChIP)", "setting": "Figure 7 A, chr2:128811847-128811944 (Intergenic), Plasmid PRDM9WT, Drug Conc. 2.5", "value": 1.223}, {"measurement": "2^-dCq (H3K4me3 ChIP relative to H3 ChIP)", "setting": "Figure 7 A, chr2:128811847-128811944 (Intergenic), Plasmid PRDM9WT, Drug Conc. 5", "value": 0.9838}, {"measurement": "2^-dCq (H3K4me3 ChIP relative to H3 ChIP)", "setting": "Figure 7 A, chr2:128811847-128811944 (Intergenic), Plasmid PRDM9WT, Drug Conc. 10", "value": 1.179}, {"measurement": "2^-dCq (H3K4me3 ChIP relative to H3 ChIP)", "setting": "Figure 7 B, chr8:49932778-49932856 (Intergenic), Plasmid Empty Vector, Drug Conc. 2.5", "value": 0.3289}, {"measurement": "2^-dCq (H3K4me3 ChIP relative to H3 ChIP)", "setting": "Figure 7 B, chr8:49932778-49932856 (Intergenic), Plasmid Empty Vector, Drug Conc. 5", "value": 0.2554}, {"measurement": "2^-dCq (H3K4me3 ChIP relative to H3 ChIP)", "setting": "Figure 7 B, chr8:49932778-49932856 (Intergenic), Plasmid Empty Vector, Drug Conc. 10", "value": 0.5965}, {"measurement": "2^-dCq (H3K4me3 ChIP relative to H3 ChIP)", "setting": "Figure 7 B, chr8:49932778-49932856 (Intergenic), Plasmid PRDM9WT, Drug Conc. 2.5", "value": 4.659}, {"measurement": "2^-dCq (H3K4me3 ChIP relative to H3 ChIP)", "setting": "Figure 7 B, chr8:49932778-49932856 (Intergenic), Plasmid PRDM9WT, Drug Conc. 5", "value": 2.677}, {"measurement": "2^-dCq (H3K4me3 ChIP relative to H3 ChIP)", "setting": "Figure 7 B, chr8:49932778-49932856 (Intergenic), Plasmid PRDM9WT, Drug Conc. 10", "value": 2.675}]}]}
